Experimental data as given in paper PMC6337391 (Molecules, 2019).
pIC50: −log10 of the molar value.

Legend:
soybean lipoxygenase = target: T1, soybean lipoxygenase (Glycine max, UniProt P08170); test: biochemical; assay type: biochemical; conditions: soybean LOX; for pIC50: read-out: LOX IC50
T1 sequence (P08170 1-839): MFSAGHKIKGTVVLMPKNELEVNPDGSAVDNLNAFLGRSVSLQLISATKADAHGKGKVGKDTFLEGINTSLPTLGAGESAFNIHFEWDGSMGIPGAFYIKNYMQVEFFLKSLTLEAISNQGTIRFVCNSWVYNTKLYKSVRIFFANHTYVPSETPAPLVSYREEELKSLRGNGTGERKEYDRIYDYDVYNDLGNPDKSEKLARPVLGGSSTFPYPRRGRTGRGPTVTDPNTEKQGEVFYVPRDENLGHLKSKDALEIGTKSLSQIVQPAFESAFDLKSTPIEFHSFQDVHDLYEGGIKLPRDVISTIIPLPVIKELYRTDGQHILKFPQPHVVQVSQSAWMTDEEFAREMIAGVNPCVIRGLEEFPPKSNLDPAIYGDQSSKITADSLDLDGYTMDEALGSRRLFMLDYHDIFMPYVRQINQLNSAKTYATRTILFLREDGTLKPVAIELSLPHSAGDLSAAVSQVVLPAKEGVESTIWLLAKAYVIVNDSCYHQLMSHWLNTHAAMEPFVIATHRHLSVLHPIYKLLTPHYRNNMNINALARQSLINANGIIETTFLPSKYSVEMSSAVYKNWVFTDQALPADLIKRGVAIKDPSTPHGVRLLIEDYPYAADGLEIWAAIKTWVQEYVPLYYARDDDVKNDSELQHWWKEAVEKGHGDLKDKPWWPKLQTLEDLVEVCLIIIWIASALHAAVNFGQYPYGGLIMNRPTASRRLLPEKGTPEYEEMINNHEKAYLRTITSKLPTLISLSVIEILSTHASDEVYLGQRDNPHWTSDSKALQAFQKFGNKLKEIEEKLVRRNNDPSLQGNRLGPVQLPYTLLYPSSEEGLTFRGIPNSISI
Excerpt: In our experiments we used soybean lipoxygenase. Designing agents to modulate activities of the variety of so closely homologous enzymes, such as different LOXs, require an intimate knowledge of their 3D structures, as well as information about metabolism of the potential xenobiotics. […] Due to lack of sufficiently-purified human enzymes most of the research has been done on soybean LOX [52, 53]. Although this enzyme is not identical to the mammalian one, it seems that there is a sufficient qualitative correlation between values for enzyme inhibition with the two enzymes.
In vitro study was evaluated as reported previously. The tested compounds as stock solutions were dissolved in DMSO. Ten microliters (10 μL) were incubated at room temperature with sodium linoleate ([…]) and 0.2 mL of enzyme solution (1/9 × 10^−4 w/v in saline) in buffer pH 9 (tris) at room temperature (final volume 1 mL). […] Several concentrations were used for the determination of IC50 values.

[1] = Lipophilicity as RM values by RP-TLC; assay type: physicochemical; parameters: key: RM = log[(1/Rf) − 1]; conditions: methanol/water 70/30, SD < 10%
Excerpt: It is well-documented and discussed in the literature that lipophilicity is a very significant physicochemical property which may critically affect distribution, bioavailability, metabolic activity and elimination, all the useful characteristics for the kinetics of biologically active compounds. Thus, we attempted to determine experimentally the lipophilicity of the synthesized compounds from the RPTLC method as RM values. The method is considered to be a reliable, fast and convenient method for expressing lipophilicity. Moreover, many calculated methods were used in order to predict the logP value.
Reversed phase TLC (RP-TLC) was performed on silica gel plates impregnated with 5% (v/v) liquid paraffin in light petroleum ether. The mobile phase was a methanol/water mixture (70/30, v/v). The plates were developed in closed chromatography tanks saturated with the mobile phase at 24 °C. Spots were detected under UV light. Five individual measurements of Rf values were recorded and used for the determination of RM using the equation RM = log [(1/Rf) − 1]. (Table 3).

[2] = ABTS•+ decolorization assay
Method: The decolorization assay is used to evaluate the antioxidant activity. The ABTS^•+ cationic radical is derived from the direct oxidation of ABTS by potassium persulfate. No involvement of an intermediary radical is observed. The addition of electron-donating antioxidants reduce ABTS^•+.
Stock solutions of the tested compounds in DMSO (10 mM) were diluted. […] aliquots of each sample were added into the ABTS·^+ solution and the absorbance was recorded at room temperature. Trolox was used as a standard.

[3] = Reducing activity with the stable radical DPPH
Method: The chalcones were studied for the antioxidant activity (reducing activity RA%) by the use of the stable free radical 2,2-diphenyl-1-picrylhydrazyl radical (DPPH) at concentrations 0.05 mM after 20 and 60 min (Table 2). In this procedure, the dominant chemical reaction involved is the reduction of the DPPH radical by single electron transfer from the antioxidant. […] For the sake of comparison, we measured the RA% values for the intermediate double ethers d which were included in the Table 2.
To a solution of DPPH (final concentration 0.05 mM) in absolute ethanol an equal volume of the compounds solution in DMSO (stock solution 10 mM) dissolved in ethanol was added. Absolute ethanol was used as a control. The concentrations of the solutions of the compounds were 0.05 and 0.1 mM. The absorbance was recorded at 517 nm at room temperature after 20 and 60 min [29] (Table 2).

[4] = Inhibition of linoleic acid lipid peroxidation (AAPH)
Excerpt: The water soluble 2,2′-azobis(2-amidinopropane) hydrochloride (AAPH) generates in vitro free radicals through spontaneous thermal decomposition. […] Overall, chalcones a, b, and c present anti-lipid peroxidation activity. […] The inhibiting activities for the rest b chalcones ranged from 15–44%. The intermediate ethers are moderate inhibitors. […] This might be correlated with the presence of the double C=C–COCH3 group. […] Both have a long ether chain in their structure.
In an aqueous solution spectrophotometrically at 234 nm the production of conjugated diene hydro peroxide by oxidation of sodium linoleate was monitored and recorded according to our previous published experimental conditions, using 10 µL of the 16 mM sodium linoleate solution added to the UV cuvette containing 930 μL of 0.05 M phosphate buffer, pH 7.4 pre-thermostated at 37 °C, under air by the addition of 50 μL of 40 mM AAPH solution, which was used as a free radical initiator. Ten microliters (10 μL) of the appropriate solutions of the tested compounds were added in the mixture, whereas same level of DMSO was used as a blank for the measurement of lipid oxidation. The rate of oxidation at 37 °C was monitored by recording the increase in absorption at 234 nm caused by conjugated diene hydro peroxides.

[5] = test system: L929 mouse fibroblasts cells; test: Cytotoxicity, propidium iodide fluorescence method; assay type: cell-based; conditions: 24-h incubation
Method: The cytotoxicity of the synthesized derivatives against L929 mouse fibroblasts cells was determined using the propidium iodide (PI) fluorescence method in the presence of different concentrations (1–100 μM) of these compounds. The results are presented in Table 4 in the form of the % cell survival values as PI% for the examined compounds. […] Chalcones c7, c8, c11, and c12 follow.
L929 mouse fibroblasts cells were cultured in EMEM supplemented with 10% horse serum, 2 mM L-glutamine, 1 mM sodium pyruvate, 0.1 mM nonessential amino acids, 1.5 g/L sodium bicarbonate, and 100 μg/mL penicillin–streptomycin at 37 °C in a humidified atmosphere with 5% CO2. L929 cells were plated into 24-well plates at a density […] and allowed to attach and grow for 24 h. The supernatant in each well then replaced with medium containing various concentrations (1, 10, 20, 50 and 100 μM) of compounds a5–12, c5–12, di, and dii–dvi, which presented the more interesting results in the in vitro experiments. After 24-h incubation, the supernatant was removed and the cells were washed with PBS. The cells were detached with 0.25% trypsin, transferred to FACS tubes, and then centrifuged (1600 rpm for 5 min) and the pellet washed with PBS. After washing, the cells in the pellet were incubated with 5 μL propidium iodide (PI) solution (1 mg/mL) for 1 min. The PI fluorescence (cell death) was determined with flow cytometry, FACS Calibur, Coulter Epics XL-MCL (Beckman, Inc., Mount Holly, NJ, USA). The analysis of flow cytometry data was performed with the WinMDI analysis program (Table 4).

Row | SMILES | % LOX Inhb. @ 100 μM (soybean lipoxygenase) | RM [1] | ABTS•+ Inhb. % @ 100 μM [2] | RA% 100 μM 20 min [3] | RA% 100 μM 60 min [3] | AAPH% @ 100 μM (anti-lipid peroxidation) [4] | 1 μM Average (% pi) ± σ [5] | 20 μM Average (% pi) ± σ [5] | 50 μM Average (% pi) ± σ [5] | 100 μM Average (% pi) ± σ [5] | 10 μM Average (% pi) ± σ ([5]; 10 μM) | pIC50 (soybean lipoxygenase)
1 | O=C(/C=C/c1cccs1)c1ccc(O)cc1 [a5, (E)-1-(4-hydroxyphenyl)-3-(thiophen-2-yl) prop-2-en-1-one] | 9% | −0.62 | No | 17% | 3% | 23% | 11.36 ± 0.62% | 28.32 ± 2.91% | 36.15 ± 2.33% | 36.15 ± 2.33% |  | 
2 | O=C(/C=C/C(Br)=C\c1ccccc1)c1ccc(OCCCOc2ccc(C(=O)/C=C/C(Br)=C\c3ccccc3)cc2)cc1 [c9, (2E,2′E,4E,4′E)-1,1′-((propane-1,3-diylbis(oxy))bis(4,1-phenylene))bis(4-bromo-5-phenylpenta-2,4-dien-1-one)] | 24.5% | −0.86 | No | No | no | 32% | 12.5 ± 10.31% | 28.76 ± 2.74% | 29.53 ± 6.87% | 29.53 ± 6.87% | 15.88 ± 6.31% | 
3 | CN(C)c1ccc(/C=C/C=C/C(=O)c2ccccc2O)cc1 [b3, (2E,4E)-5-(4-(dimethylamino)phenyl)-1-(2-hydroxyphenyl)penta-2,4-dien-1-one] | 100% | −0.66 | 96% | 72% | 15% | 100% |  |  |  |  |  | 4.24
4 | O=C(/C=C/c1ccccc1)c1ccc(OCCCOc2ccc(C(=O)/C=C/c3ccccc3)cc2)cc1 [c13, (2E,2′E)-1,1′-((propane-1,3-diylbis(oxy))bis(4,1-phenylene))bis(3-phenylprop-2-en-1-one)] | 76% | 0.34 | No | No | no | 71% |  |  |  |  |  | 4.19
5 | O=C(/C=C/c1ccccc1)c1ccccc1O [b13, (E)-1-(2-hydroxyphenyl)-3-phenylprop-2-en-1-one] | 14% | 0.43 | No | 10% | 0% | 15% |  |  |  |  |  | 
6 | CN(C)c1ccc(/C=C/C=C/C(=O)c2ccc(OCCCCOc3ccc(C(=O)/C=C/C=C/c4ccc(N(C)C)cc4)cc3)cc2)cc1 [eiii, (2E,2′E,4E,4′E)-1,1′-((butane-1,4-diylbis(oxy))bis(4,1-phenylene))bis(5-(4-(dimethylamino)phenyl)penta-2,4-dien-1-one)] | 27% | −0.07 | No | No | no | 47% |  |  |  |  |  | 
7 | O=C(/C=C/c1ccccc1)c1ccc(O)cc1 [a13, (E)-1-(4-hydroxyphenyl)-3-phenylprop-2-en-1-one] | 23% | −0.73 | No | 7% | 3% | 38% |  |  |  |  |  | 
8 | O=C(/C=C/C(Br)=C\c1ccccc1)c1ccccc1O [b9, (2E,4E)-4-bromo-1-(2-hydroxyphenyl)-5-phenylpenta-2,4-dien-1-one] | 16% | −0.37 | No | 20% | 8% | 17% |  |  |  |  |  | 
9 | O=C(/C=C/c1ccc(OCc2ccc(Br)cc2)cc1)c1ccccc1O [b1, (E)-3-(4-((4-bromobenzyl)oxy)phenyl)-1-(2-hydroxyphenyl) prop-2-en-1-one] | 89% | −0.91 | 40% | 46% | 0% | 89% |  |  |  |  |  | 4.25
10 | O=C(/C=C/c1cccc(Oc2ccccc2)c1)c1ccccc1O [b2, (E)-1-(2-hydroxyphenyl)-3-(3-phenoxyphenyl) prop-2-en-1-one] | 44% | 0.04 | No | 45% | 15% | 44% |  |  |  |  |  | 
